One series relates to NF-κB. The series is described as follows: NF-κB activity, secreted alkaline phosphatase reporter in THP1-XBlue-MD2-CD14 cells. Type of series: cell-based, human. Conditions: 1 h pretreatment, 24 h; for decrease of NF-κB activity stimulated by LPS: LPS 1 μg/mL; for decrease of NF-κB activation induced by Pam3CSK4: Pam3CSK4 100 ng/mL; for decrease of NF-κB activity stimulated by TNF-α: TNF-α 10 ng/mL. Here is the method: The THP-1 human monocytic leukemia cell line was obtained from the European Collection of Cell Cultures (ECACC, Salisbury, UK) and THP1-XBlue™-MD2-CD14 cells were purchased from Invivogen (San Diego, USA). The cells were cultivated at 37°C in the RPMI 1640 medium supplemented with 2 mM L-glutamine, 10% FBS, 100 U/mL penicillin, and 100 μg/mL streptomycin in a humidified atmosphere containing 5% CO2. The culture was split twice a week when the cells had reached the concentration of 5–7×10^5 cells/mL. The cell count and viability were determined following staining with erythrosin B. The cells were counted manually using a hemocytometer and a light microscope.
One hundred microliters of the stabilized THP-1 cells (5th-20th passage) were split into 96-well plates to afford the concentration of 5×10^5 cells/mL, and differentiation into macrophages was induced by the addition of phorbol myristate acetate (PMA), as described previously. THP1-XBlue™-MD2-CD14 cells were used without any differentiation due to their stabile expression of MD2 and CD14 co-receptors.
THP1-XBlue™-MD2-CD14 cells were transferred into a serum-free medium at the concentration of 5×10^5 cells/mL. The floated cells were pretreated with the tested compounds (i.e. complexes 1–7, [Cu(Law)2(H2O)2]·0.5H2O, and Hlaw, respectively) and stimulated either by LPS (1 μg/mL), or by the addition of human recombinant TNF-α (10 ng/mL; Invivogen), or by Pam3CSK4 (100 ng/mL; Invivogen), a synthetic triacylated lipoprotein and selective Toll-like receptor 1/2 agonist. After 24 h of the incubation, 20 μL of the cultivation medium was mixed with 180 μL of Quanti-Blue medium and incubated according to the manufacturer’s instructions at 37°C for 2 h. The activity of released alkaline phosphatase, directly proportional to the NF-κB activity, was quantified from the difference in absorbance at 655 nm against the untreated control.

The subject of series [1] is carrageenan-induced hind paw edema. The series is described as follows: Carrageenan-induced hind paw edema, plethysmometry. It counts as in vivo, rat. Particulars: rats, i.p., dose corresponding to 40 mmol Cu/kg (ca. 20 mg/kg), 30 min before carrageenan, up to 6 h. Here is the method:
Wistar—SPF (6–8 weeks male) rats were obtained from the AnLab, Ltd., Prague. The animals were kept in plexiglass cages at the constant temperature of 22±1°C, and relative humidity of 55±5% for at least 1 week before the experiment. They were given food and water ad libitum. After a one-week adaptation period, male Wistar-SPF rats (200–250 g) were randomly assigned into ten groups (n = 7) of animals in the study. The first, control group, received 10% DMF (v/v in water, intraperitoneal; i.p.). The next eight groups were pretreated with complexes 1–7 and [Cu(Law)2(H2O)2]·0.5H2O (at the dose corresponding to […] Cu/kg; ca. 20 mg/kg) and involved into the carrageenan-treatment. The last group was treated with a non-steroidal anti-inflammatory drug Indomethacin (5 mg/kg), which served as a positive control (Indomethacin + carrageenan).
The carrageenan-induced hind paw edema model was used for the determination of the anti-inflammatory activity. […] The paw volume was measured immediately after the carrageenan injection and during the next 6 h after the administration of the edematogenic agent using a plethysmometer (model 7159, Ugo Basile, Varese, Italy). The degree of swelling induced was evaluated as the percentage of change in the volume of the right hind paw after the carrageenan treatment from the volume of the right hind paw before the carrageenan treatment.
(Carrageenan injected into the paw causes an acute inflammation.)

The subject of series [2] is PMN infiltration of hind paw tissue. Description: Ex vivo histological evaluation of hind paw tissue (hematoxylin/eosin). Type of series: in vivo, rat. Particulars: rats, i.p., tissue after 6 h. The text has this:
All the animals were sacrificed by cervical dislocation, and immediately after that, the affected hind paws were separated and underwent the process of dehydration and fixation, and were embedded into paraffin blocks by means of standard protocols. The histopathological changes, like infiltration of different skin elements and deeper laying tissues by the polymorphonuclear white blood cells (dominantly neutrophils and lymphocytes) stained by the standard hematoxylin/eosin staining, were evaluated.

In another series the test system is TNF-α. The series is described as follows: TNF-α secretion in LPS-stimulated THP-1 macrophages (ELISA). Particulars: 100 nM, 1 h pretreatment, LPS 1 μg/mL, 24 h. Type of series: cell-based, human. On the procedure:
One hundred microliters of the stabilized THP-1 cells (5th-20th passage) were split into 96-well plates to afford the concentration of 5×10^5 cells/mL, and differentiation into macrophages was induced by the addition of phorbol myristate acetate (PMA), as described previously. […] Whereas the complexes were dissolved in PBS, lawsone was dissolved in DMSO. With respect to the results of cytotoxicity assay, the concentration of 100 nM should not affect the viability of the target cells in any way. For comparative purposes, a conventional drug prednisone was used at the standard dose of 1 μM dissolved in DMSO. Then, the DMSO was added to the rest of the wells. […] Vehicle-treated cells contained a vehicle (0.1% DMSO) only. The TNF-α secretion in the pretreated differentiated THP-1 macrophages was induced by the addition of 1 μg/mL LPS dissolved in sterile water. The basal cytokine expression level was determined in the control cells without the LPS stimulation. LPS triggers an inflammatory response through binding to toll-like receptor 4 (TLR-4) and subsequently activates the NF-κB signaling pathway. The cultivation medium was aspirated 24 h after the LPS addition and the cell residue was removed by centrifugation. The concentration of the secreted TNF-α was determined using the Human TNF-α Instant ELISA kit.

The nature of series [3]: In vitro cytotoxicity, WST-1 assay, 24 h. It counts as cell-based. Particulars: human, THP-1 monocytic leukemia cells. (In general: Tetrazolium dyes change colour on reduction, which living cells bring about.)
Procedure: The final concentration of the solvent in the culture medium was 0.1% (v/v). The cells were incubated at 37°C with 5% CO2 for 24 h. After the incubation, the cytotoxicity was determined by the Cell Proliferation Reagent WST-1 kit according to the manufacturer´s instructions.
Setting [4] is: 100 nM, vs vehicle-treated cells.

Entries after “also recorded” stand apart in the source; their conditions may differ.

Here are results for nine molecules from PMC5526570, “In vitro and in vivo anti-inflammatory active copper(II)-lawsone complexes” (PLoS ONE, 2017).

The viability is a per cent measure of how many cells are alive, often set against a control. A high value points to better survival.

In the case of `O.O=C1C=C([O-])C(=O)c2ccccc21.O=C1C=C([O-])C(=O)c2ccccc21.[Cu+2].c1ccncc1` [compound 1, [Cu(Law)2(H2O)(py)]], the “decrease of NF-κB activity stimulated by LPS” value (from here on “decrease … by LPS”) in the series with NF-κB (setting [4]) is reported as “did not affect”. In addition, in the series with NF-κB (100 nM), the “decrease of NF-κB activation induced by Pam3CSK4” value (“decrease … by Pam3CSK4” below) is recorded as “no noticeable effect”. Besides, in series [1], the “antiedematous activity (hind paw swelling)” value is reported as “diminish completely the swelling of the hind paw; also recorded: most active”. Also, the “PMN infiltration / inflammatory reaction in hind paw tissue” value (from here on “PMN infiltration / inflammatory reaction”) in series [2] ((ca. 20 mg/kg)) is “mainly scarce and diffuse”.

Consider `O=C1C=C([O-])C(=O)c2ccccc21.O=C1C=C([O-])C(=O)c2ccccc21.[Cu+2].c1c[nH]cn1.c1c[nH]cn1` [compound 2, [Cu(Law)2(Im)2]], for which, in the series with NF-κB (setting [4]), the “decrease … by LPS” value came to 10%. The “decrease … by Pam3CSK4” value with NF-κB (100 nM) is given as “no noticeable effect”.

As for `COc1ccc2c(c1)c(CC(=O)O)c(C)n2C(=O)c1ccc(Cl)cc1` [indomethacin, reference compound], the “PMN infiltration / inflammatory reaction” value in series [2] (5 mg/kg) is “mainly scarce and diffuse”.

`O=C1C=C(O)C(=O)c2ccccc21` [lawsone, 2-hydroxy-1,4-naphthoquinone]: the “decrease … by LPS” value in the series with NF-κB (setting [4]) is listed as 19–24%. The “decrease of NF-κB activity stimulated by TNF-α” value with NF-κB (100 nM) is given as 32%. Also, the “decrease of TNF-α expression/secretion in LPS-stimulated cells” value with TNF-α is given as 28%. In series [3], this molecule yielded a viability at 24 h, 10 µM of approximately 80%.

In the case of `C[C@]12C=CC(=O)C=C1CC[C@@H]1[C@@H]2C(=O)C[C@@]2(C)[C@H]1CC[C@]2(O)C(=O)CO` [prednisone, reference compound], in the series on NF-κB (1 μM), the “decrease … by LPS” value came out at 26% and the “decrease of NF-κB activity stimulated by TNF-α” value was determined as 37%.

Turning to “[Cu(Law)2(3,5diMePz)2]·0.5H2O [compound 7]”, the “decrease … by LPS” value in the series with NF-κB (setting [4]) is recorded as 19–24%. For the same molecule, in series [1], the “antiedematous activity (hind paw swelling)” value is recorded as “least active”. Further, in series [2] ((ca. 20 mg/kg)), the “PMN infiltration / inflammatory reaction” value was “massive presence of PMN cells”.

For [Cu(Law)2(3-OHpy)2] [compound 6], the “decrease … by LPS” value with NF-κB (setting [4]) is given as 12%.

As for [Cu(Law)2(3-apy)2]·0.5H2O [compound 4], the “decrease … by LPS” value in the series with NF-κB (setting [4]) is recorded as 19–24%.

Regarding “[Cu(Law)2(H2O)(2-apy)]·0.5H2O [compound 3]”, the “decrease … by LPS” value in the series with NF-κB (setting [4]) is reported as 19–24%. In addition, the “decrease … by Pam3CSK4” value with NF-κB (100 nM) is “most efficient”. In addition, the “decrease of TNF-α expression/secretion in LPS-stimulated cells” value in the series with TNF-α is recorded as “greatest potential”.
